Results from US20160184274A1, “Methods for inhibiting mesenchymal phenotype after epithelial-to-mesenchymal transition” (Fibrostatin, S.L., priority 2014, published 2016).
Entries after “also recorded” stand apart in the source; their conditions may differ.

What was measured:
[1] = system: 4T1 mouse breast cancer cells; test: Murine breast cancer 4T1 model; format: in vivo, Balb/c mice
Experimental: FIG. 10. […] Control, n=43; T12, n=18. FIG. 11. T12 targets circulating 4T1 cancer cells. A, Balb/c female mice were inoculated with 4T1 mouse breast cancer cells at mammary fat pads. At day 20 after cell inoculation mice were subjected to PET analysis for metastases detection. White arrows denote metastatic foci at the spinal cord. B, Balb/c female from A were either left untreated (Control), or were treated with T12 in drinking water from day 20. At day 35 blood was seeded in the presence of 6-thioguanine and circulating 4T1 cells selected and further cultured. Shown are phase contrast images of the resulting cultures acquired with an inverted microscope. […] C, circulating 4T1 cells recovered as in B and 4T1 cells were cultured in standard 2D cultures and subjected to RNA extraction, and RNA samples were analyzed by RT-qPCR. Shown are the relative quantities (RQ) of the indicated mRNAs of circulating 4T1 cells using levels from 4T1 cells as reference. D, the cultures in C were treated with the indicated concentrations of T12 for 24 h. Dead cells in culture media were quantified by measuring cell size using an automated cell counter (Moxi Z, Orflo). The number of dead cells in the culture media of the respective untreated cells (−) was used as reference. E, circulating 4T1 cells recovered as in B or 4T1 cells were cultured in ultra-low binding plates and treated with the indicated concentrations of T12 for 9 days, cells were lysed and analyzed by Western blot using antibodies specific for activated caspase 3. The levels of GAPDH were determined for loading control purposes. For other assays, 10^4 4 T1 cells were suspended in 10 μl PBS and subcutaneously injected into the 4th mammary fat pad of 4-week-old Balb/c female mice, and either left untreated or treated since the inoculation day with T12 (12 mg/kg/day in drinking water). Primary tumors formed and dimensions were periodically measured with a caliper.

[2] = system: 4T1 cells; test: Cell death / caspase 3 activation in 4T1 cells; format: cell-based, Mouse; conditions: same T12 concentrations as for circulating 4T1 cells; FIG. 11D-E
Experimental: FIG. 11. T12 targets circulating 4T1 cancer cells. A, Balb/c female mice were inoculated with 4T1 mouse breast cancer cells at mammary fat pads. At day 20 after cell inoculation mice were subjected to PET analysis for metastases detection. White arrows denote metastatic foci at the spinal cord. B, Balb/c female from A were either left untreated (Control), or were treated with T12 in drinking water from day 20. At day 35 blood was seeded in the presence of 6-thioguanine and circulating 4T1 cells selected and further cultured. Shown are phase contrast images of the resulting cultures acquired with an inverted microscope. […] C, circulating 4T1 cells recovered as in B and 4T1 cells were cultured in standard 2D cultures and subjected to RNA extraction, and RNA samples were analyzed by RT-qPCR. Shown are the relative quantities (RQ) of the indicated mRNAs of circulating 4T1 cells using levels from 4T1 cells as reference. […] Dead cells in culture media were quantified by measuring cell size using an automated cell counter (Moxi Z, Orflo). […] E, circulating 4T1 cells recovered as in B or 4T1 cells were cultured in ultra-low binding plates and treated with the indicated concentrations of T12 for 9 days, cells were lysed and analyzed by Western blot using antibodies specific for activated caspase 3. The levels of GAPDH were determined for loading control purposes. […]

Structure (SMILES): COc1ccc(-c2ccc(-c3cccc(C)c3)c(C)c2)c(CCC(=O)O)c1 [T12, 3-[4″-methoxy-3,2′-dimethyl-(1,1′;4′,1″)terphenyl-2″-yl] propionic acid]
- tumor volume (anti-tumor activity) ([1]; T12 12 mg/kg/day in drinking water from inoculation, FIG. 10B, 12 mg/kg/day): displayed anti-tumor activity; also recorded: differences are statistically significant
- superficial metastasis per lung ([1]; T12 12 mg/kg/day in drinking water, day 25, FIG. 10C, 12 mg/kg/day): inhibited metastasis formation; also recorded: Differences are statistically significant
- recovery of circulating 4T1 tumor cells from blood ([1]; T12 in drinking water from day 20, blood seeded at day 35 with 6-thioguanine, FIG. 11B): impeded the isolation of circulating 4T1 tumor cells; also recorded: could not be recovered
- sensitivity to T12: dead cells and activated caspase 3 [2]: little effect on 4T1 cells
